Experiments:
[1] = test system: Splenocyte; test: In vitro for inhibitory activity against tyrosine specific protein kinase from murine spleen cells (T-kinase); assay type: functional, cell-based; settings: Mus musculus
[2] = biological target: Protein kinase C (PKC); test: In vitro for inhibitory activity against protein kinase C from rat brain
[3] = biological target: cAMP-dependent protein kinase catalytic subunit alpha (Bos taurus, UniProt P00517); test: In vitro for inhibitory activity against cAMP-dependent protein kinase from bovine heart (A-kinase)
[4] = biological target: T1, cGMP-dependent protein kinase 1 (Bos taurus, UniProt P00516); test: In vitro for inhibitory activity against cGMP-dependent protein kinase from bovine lung (G-kinase)
T1 sequence (P00516 whole entry): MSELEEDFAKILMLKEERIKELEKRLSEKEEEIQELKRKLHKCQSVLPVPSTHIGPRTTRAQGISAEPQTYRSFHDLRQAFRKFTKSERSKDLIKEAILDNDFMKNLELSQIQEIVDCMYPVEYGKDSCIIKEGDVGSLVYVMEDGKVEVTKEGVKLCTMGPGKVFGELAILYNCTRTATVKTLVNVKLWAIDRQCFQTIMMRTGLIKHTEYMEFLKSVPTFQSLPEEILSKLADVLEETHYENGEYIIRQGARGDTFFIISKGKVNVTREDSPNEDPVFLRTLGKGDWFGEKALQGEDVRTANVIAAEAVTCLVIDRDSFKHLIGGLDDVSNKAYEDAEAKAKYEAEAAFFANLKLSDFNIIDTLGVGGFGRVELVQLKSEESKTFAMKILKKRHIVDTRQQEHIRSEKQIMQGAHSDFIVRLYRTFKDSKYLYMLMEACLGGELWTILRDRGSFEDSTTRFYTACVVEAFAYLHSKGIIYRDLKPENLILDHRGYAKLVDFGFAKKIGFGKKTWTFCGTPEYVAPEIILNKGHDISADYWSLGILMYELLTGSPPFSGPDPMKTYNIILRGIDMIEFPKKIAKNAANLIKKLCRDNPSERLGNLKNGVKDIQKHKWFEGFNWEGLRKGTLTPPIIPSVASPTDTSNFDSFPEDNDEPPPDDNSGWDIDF

[5] = biological target: Myosin light chain kinase, smooth muscle (Gallus gallus, UniProt P11799); test: In vitro for inhibitory activity against myosin light-chain kinase from chicken gizzard (M-kinase)
Sequence of Myosin light chain kinase, smooth muscle (P11799 whole entry): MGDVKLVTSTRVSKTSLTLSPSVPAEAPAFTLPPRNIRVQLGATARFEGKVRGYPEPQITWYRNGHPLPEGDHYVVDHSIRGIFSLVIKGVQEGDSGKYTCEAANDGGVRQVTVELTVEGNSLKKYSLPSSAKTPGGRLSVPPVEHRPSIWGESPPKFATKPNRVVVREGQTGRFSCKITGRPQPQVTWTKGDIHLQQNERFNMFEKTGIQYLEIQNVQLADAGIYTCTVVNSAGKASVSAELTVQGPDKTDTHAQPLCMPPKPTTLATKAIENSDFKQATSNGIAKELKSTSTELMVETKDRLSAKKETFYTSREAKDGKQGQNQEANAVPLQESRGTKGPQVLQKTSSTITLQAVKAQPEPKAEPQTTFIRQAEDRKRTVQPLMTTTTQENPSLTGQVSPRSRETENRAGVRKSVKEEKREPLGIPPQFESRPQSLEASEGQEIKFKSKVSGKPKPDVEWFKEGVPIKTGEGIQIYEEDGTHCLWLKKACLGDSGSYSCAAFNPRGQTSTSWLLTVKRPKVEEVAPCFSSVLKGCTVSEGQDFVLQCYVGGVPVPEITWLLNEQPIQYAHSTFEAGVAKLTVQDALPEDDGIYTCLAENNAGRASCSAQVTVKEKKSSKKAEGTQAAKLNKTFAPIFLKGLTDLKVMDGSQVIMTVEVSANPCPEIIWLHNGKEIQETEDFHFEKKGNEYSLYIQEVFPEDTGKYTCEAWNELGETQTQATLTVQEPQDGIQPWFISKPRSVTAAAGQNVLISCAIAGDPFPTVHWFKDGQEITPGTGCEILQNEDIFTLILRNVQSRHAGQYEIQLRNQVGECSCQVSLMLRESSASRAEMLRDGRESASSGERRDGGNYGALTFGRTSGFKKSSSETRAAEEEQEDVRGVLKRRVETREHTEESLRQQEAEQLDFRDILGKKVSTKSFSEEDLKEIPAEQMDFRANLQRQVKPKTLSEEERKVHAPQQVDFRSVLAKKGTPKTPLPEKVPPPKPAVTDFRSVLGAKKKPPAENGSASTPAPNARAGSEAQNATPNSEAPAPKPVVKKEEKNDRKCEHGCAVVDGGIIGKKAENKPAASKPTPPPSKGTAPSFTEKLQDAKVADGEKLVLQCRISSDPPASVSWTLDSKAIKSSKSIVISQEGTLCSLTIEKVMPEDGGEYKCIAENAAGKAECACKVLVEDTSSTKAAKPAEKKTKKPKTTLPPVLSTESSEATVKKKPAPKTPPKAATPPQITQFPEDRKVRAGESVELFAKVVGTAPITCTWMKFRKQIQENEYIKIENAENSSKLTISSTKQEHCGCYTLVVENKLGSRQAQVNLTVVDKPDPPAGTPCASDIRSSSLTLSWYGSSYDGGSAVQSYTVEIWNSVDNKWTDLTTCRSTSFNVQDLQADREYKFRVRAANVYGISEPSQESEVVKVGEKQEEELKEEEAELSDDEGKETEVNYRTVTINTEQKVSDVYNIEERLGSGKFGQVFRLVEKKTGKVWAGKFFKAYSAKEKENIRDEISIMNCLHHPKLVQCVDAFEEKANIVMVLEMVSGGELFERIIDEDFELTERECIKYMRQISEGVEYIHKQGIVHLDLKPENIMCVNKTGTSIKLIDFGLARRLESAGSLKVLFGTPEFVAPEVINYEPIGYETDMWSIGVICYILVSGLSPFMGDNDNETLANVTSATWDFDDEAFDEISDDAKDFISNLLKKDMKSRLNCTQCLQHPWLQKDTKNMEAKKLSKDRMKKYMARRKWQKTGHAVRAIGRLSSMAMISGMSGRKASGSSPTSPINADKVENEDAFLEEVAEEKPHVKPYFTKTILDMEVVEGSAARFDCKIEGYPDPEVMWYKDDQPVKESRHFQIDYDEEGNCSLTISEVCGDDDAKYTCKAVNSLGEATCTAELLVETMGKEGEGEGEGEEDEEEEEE

| IC50 [1] [nM] | IC50 [2] [nM] | IC50 [3] [nM] | IC50 [4] [nM] | IC50 [5] [nM] | Compound |
| --- | --- | --- | --- | --- | --- |
| – | 8100 | – | – | – | CCCn1c2ccccc2c2c3c(c4c5ccccc5n(CCC)c4c21)C(=O)NC3 |
| – | 3500 | – | – | – | CC(C)=CCn1c2ccccc2c2c3c(c4c5ccccc5[nH]c4c21)C(=O)NC3 |
| > 10000 | 32 | 2400 | 710 | 440 | Cn1c2ccccc2c2c3c(c4c5ccccc5n(CC(F)F)c4c21)CNC3=O |
| – | 75 | > 10000 | 320 | 500 | N#CCCn1c2ccccc2c2c3c(c4c5ccccc5[nH]c4c21)C(=O)NC3 |
| > 10000 | 100 | > 30000 | 5100 | 11000 | CCCn1c2ccccc2c2c3c(c4c5ccccc5n(C)c4c21)C(=O)NC3 |
| – | 450 | > 100000 | 5500 | 5800 | Cn1c2ccccc2c2c3c(c4c5ccccc5n(C)c4c21)C(=O)NC3 |
| – | 110 | – | – | 82 | NC(=O)CCn1c2ccccc2c2c3c(c4c5ccccc5[nH]c4c21)C(=O)NC3 |
| – | 590 | > 100000 | 21000 | 1800 | O=C(O)CCn1c2ccccc2c2c3c(c4c5ccccc5[nH]c4c21)C(=O)NC3 |
| – | 25 | – | – | 450 | Cn1c2ccccc2c2c3c(c4c5ccccc5n(CCCN=[N+]=[N-])c4c21)CNC3=O |
| > 10000 | – | > 100000 | – | – | Cn1c2ccccc2c2c3c(c4c5ccccc5n(CCC#N)c4c21)CNC3=O [GO-6976] |
| > 10000 | 27 | 6300 | 1300 | 1600 | CCn1c2ccccc2c2c3c(c4c5ccccc5n(CCC#N)c4c21)CNC3=O |
| – | 200 | > 10000 | 700 | 1200 | CCn1c2ccccc2c2c3c(c4c5ccccc5n(CC)c4c21)C(=O)NC3 |
| – | 99 | 4800 | 280 | 390 | O=C1NCc2c1c1c3ccccc3[nH]c1c1c2c2ccccc2n1CC(O)CO (configuration not stated) |
| > 10000 | > 30000 | > 30000 | > 30000 | > 10000 | CN1Cc2c(c3c4ccccc4n(C)c3c3c2c2ccccc2n3CCC#N)C1=O |
| – | 520 | > 10000 | 400 | 1100 | Cn1c2ccccc2c2c3c(c4c5ccccc5[nH]c4c21)C(=O)NC3 |

| Compound | IC50 [1] [nM] | IC50 [2] [nM] | IC50 [3] [nM] | IC50 [4] [nM] | IC50 [5] [nM] |
| --- | --- | --- | --- | --- | --- |
| CN[C@@H]1C[C@H]2O[C@@](C)([C@@H]1OC)n1c3ccccc3c3c4c(c5c6ccccc6n2c5c31)C(=O)NC4 [STAUROSPORINE] | 400 | – | – | – | – |
| O=C1NCc2c1c1c3ccccc3[nH]c1c1[nH]c3ccccc3c21 [STAUROSPORINONE] | – | 680 | > 10000 | 650 | 2800 |
